Measurements from patent US7943770B2, “Fused quinoline derivative and use thereof” (Takeda Pharmaceutical Company Limited, priority 2004, dated 2011).

The compounds below were run against T1, hNK2 receptor (Homo sapiens, UniProt P21452) (assay: Radio-ligand ([125I]-NKA) receptor binding inhibitory activity using membrane fraction of hNK2 receptor-expressing CHO cell). Details: membrane fraction of hNK2 receptor-expressing CHO cells, 25° C., 30 min.
T1 construct: host or cells: CHO cells
T1 sequence (P21452 1-398): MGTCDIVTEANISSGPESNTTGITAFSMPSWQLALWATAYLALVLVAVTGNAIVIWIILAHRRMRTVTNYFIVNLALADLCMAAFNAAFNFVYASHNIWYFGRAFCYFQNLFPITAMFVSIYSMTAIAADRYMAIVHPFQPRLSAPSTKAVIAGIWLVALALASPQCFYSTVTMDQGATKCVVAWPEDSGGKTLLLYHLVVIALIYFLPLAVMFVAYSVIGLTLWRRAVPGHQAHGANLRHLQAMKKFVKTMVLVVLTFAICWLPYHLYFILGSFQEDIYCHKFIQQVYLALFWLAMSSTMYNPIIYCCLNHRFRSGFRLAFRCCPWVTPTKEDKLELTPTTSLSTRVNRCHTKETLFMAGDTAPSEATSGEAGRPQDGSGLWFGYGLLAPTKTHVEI
Procedure, shortened: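 Inhibition of [125I]-NKA binding ([…] solution added) measured after 30 min at 25 °C using hNK2-CHO membrane fraction (20 μg/mL suspension) in pH 7.4 Tris buffer containing MnCl2, BSA and protease inhibitors. Filter-bound counts read; activity calculated as fraction of specific binding, non-specific defined with unlabeled NKA.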
An IC50 of under 1 nM was found for COc1ccc(/C=C/C(=O)N[C@@H]2CCCC[C@@H]2C(=O)N2CC[C@@H]3[C@H](c4ccccc4)Nc4ccccc4[C@@H]32)cc1 [Example 105, (2E)-3-(4-Methoxyphenyl)-N-((1R,2S)-2-{[(3aR,4R,9bR)-4-phenyl-2,3,3a,4,5,9b-hexahydro-1H-pyrrolo[3,2-c]quinolin-1-yl]carbonyl}cyclohexyl)acrylamide] in this work.
An IC50 of under 1 nM was found for COC[C@@H]1Nc2ccccc2[C@H]2[C@@H]1CCN2C(=O)[C@H]1CCCC[C@H]1NC(=O)Nc1ccc(C#N)c(C)c1 [Example 283, N-(4-Cyano-3-methylphenyl)-N′-((1R,2S)-2-{[(3aR,4R,9bR)-4-(methoxymethyl)-2,3,3a,4,5,9b-hexahydro-1H-pyrrolo[3,2-c]quinolin-1-yl]carbonyl}cyclohexyl)urea] in this work.
An IC50 of under 10 nM was found for COC[C@@H]1Nc2ccccc2[C@H]2[C@@H]1CCN2C(=O)[C@H]1CCCC[C@H]1NC(=O)c1ccc(NCCO)cc1 [Example 266, 4-[(2-Hydroxyethyl)amino]-N-((1R,2S)-2-{[(3aR,4R,9bR)-4-(methoxymethyl)-2,3,3a,4,5,9b-hexahydro-1H-pyrrolo[3,2-c]quinolin-1-yl]carbonyl}cyclohexyl)benzamide] in this work.
An IC50 of under 10 nM was found for COC[C@@H]1Nc2ccccc2[C@H]2[C@@H]1CCN2C(=O)[C@H]1CCCC[C@H]1NC(=O)c1ccc(-n2ccnc2C)cc1 [Example 271, N-((1R,2S)-2-{[(3aR,4R,9bR)-4-(Methoxymethyl)-2,3,3a,4,5,9b-hexahydro-1H-pyrrolo[3,2-c]quinolin-1-yl]carbonyl}cyclohexyl)-4-(2-methyl-1H-imidazol-1-yl)benzamide] in this work.
An IC50 of under 1 nM was found for CCC[C@@H]1Nc2ccccc2[C@H]2[C@@H]1CCN2C(=O)[C@H]1CCCC[C@H]1NC(=O)Nc1ccc2c(c1)OCO2 [Example 200, N-1,3-Benzodioxol-5-yl-N′-((1R,2S)-2-{[(3aR,4S,9bR)-4-propyl-2,3,3a,4,5,9b-hexahydro-1H-pyrrolo[3,2-c]quinolin-1-yl]carbonyl}cyclohexyl)urea] in this work.
An IC50 of under 10 nM was found for O=C(N[C@@H]1CCCC[C@@H]1C(=O)N1CC[C@@H]2[C@H](c3nccs3)Nc3ccccc3[C@@H]21)c1ccccc1 (relative stereo) [Example 25, N-((1R,2S)-2-{[(3aR*,4R*,9bR*)-4-(1,3-Thiazol-2-yl)-2,3,3a,4,5,9b-hexahydro-1H-pyrrolo[3,2-c]quinolin-1-yl]carbonyl}cyclohexyl)benzamide] in this work.
An IC50 of under 1 nM was found for COC[C@@H]1Nc2ccccc2[C@H]2[C@@H]1CCN2C(=O)[C@H]1CCCC[C@H]1NC(=O)Nc1ccc(C#N)cc1 [Example 217, N-(Cyanophenyl)-N′-((1R,2S)-2-{[(3aR,4R,9bR)-4-(methoxymethyl)-2,3,3a,4,5,9b-hexahydro-1H-pyrrolo[3,2-c]quinolin-1-yl]carbonyl}cyclohexyl)urea] in this work.
An IC50 of under 1 nM was found for O=C(N[C@@H]1CCCC[C@@H]1C(=O)N1CC[C@@H]2[C@H](c3ccccc3)Nc3ccccc3[C@@H]21)c1ccc2[nH]cnc2c1 [Example 133, N-((1R,2S)-2-{[(3aR,4R,9bR)-4-Phenyl-2,3,3a,4,5,9b-hexahydro-1H-pyrrolo[3,2-c]quinolin-1-yl]carbonyl}cyclohexyl)-1H-benzimidazole-5-carboxamide] in this work.
An IC50 of under 10 nM was found for O=C(NCCCO)N[C@@H]1CCCC[C@@H]1C(=O)N1CC[C@@H]2[C@H](c3ccccc3)Nc3ccccc3[C@@H]21 [Example 156, N-(3-Hydroxypropyl)-N′-((1R,2S)-2-{[(3aR,4R,9bR)-4-phenyl-2,3,3a,4,5,9b-hexahydro-1H-pyrrolo[3,2-c]quinolin-1-yl]carbonyl}cyclohexyl)urea] in this work.
An IC50 of under 10 nM was found for O=C(N[C@@H]1CCCC[C@@H]1C(=O)N1CC[C@@H]2[C@H](c3cocn3)Nc3ccccc3[C@@H]21)c1ccccc1 [Example 76, N-((1R,2S)-2-{[(3aR,4R,9bR)-4-(1,3-Oxazol-4-yl)-2,3,3a,4,5,9b-hexahydro-1H-pyrrolo[3,2-c]quinolin-1-yl]carbonyl}cyclohexyl)benzamide] in this work.
